Experimental data: patent US20120053318A1, “METHOD OF RADIOLABELING” (CENTRE FOR PROBE DEVELOPMENT AND COMMERCIALIZATION, priority 2010, published 2012)

Tests used:
[1] = oils selected based on biocompatibility; cited from earlier work
[2] = molecular target: urokinase plasminogen activator receptor (uPAR) (Homo sapiens, UniProt Q03405); assay: binding affinity of Re complexes of the peptides for uPAR; conditions: isostructural to the Tc analogues
Sequence of urokinase plasminogen activator receptor (uPAR) (Q03405 23-305): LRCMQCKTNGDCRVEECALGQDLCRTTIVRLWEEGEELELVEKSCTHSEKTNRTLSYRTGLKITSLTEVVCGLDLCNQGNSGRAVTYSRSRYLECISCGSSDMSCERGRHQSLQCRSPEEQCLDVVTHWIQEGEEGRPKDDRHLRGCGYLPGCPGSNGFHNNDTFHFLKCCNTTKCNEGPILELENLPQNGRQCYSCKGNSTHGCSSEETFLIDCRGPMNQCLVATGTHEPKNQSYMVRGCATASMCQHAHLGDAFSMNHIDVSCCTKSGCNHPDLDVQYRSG

Compound: CC(C)CC(C)(C)C [isooctane]
- LD50 [1]: greater than 2000 mg/kg

Compound: D-Cha-F-s-r-Y-L-W-S-SAACII [L2]
- Ki [2]: 0.39 ± 0.1 nM

Compound: SAACII-S-G-S-G-D-Cha-F-s-r-Y-L-W-S [L1]
- Ki [2]: 1.37 ± 0.83 nM
